Test results taken from PubChem BioAssay AID1963961 (Molecular Pharmacology Branch, DTP, NCI, 2024).

System: K98450-129-R-PDC multicell spheroids, viability
Assay: Anticancer human tumor K98450-129-R-PDC patient-derived colon adenocarcinoma cell line growth inhibition [PI3K]
Details: for IC50: curve of first compound; for viability, T/C: stronger effect = lower value
Method in brief: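 Three cell types, namely tumor cells, endothelial cells and mesenchymal stem cells, formed each spheroid. Combinations with four PI3K inhibitors were screened at clinically achievable concentrations decreasing by half-log, and spheroid viability was recorded.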

[1] = second compound 0.0316 µM, first compound 0.0316 µM
[2] = second compound 0.0316 µM, first compound 0.1 µM
[3] = second compound 0.0316 µM, first compound 0.316 µM
[4] = second compound 0.0316 µM, first compound 1 µM
[5] = second compound 0.0316 µM, first compound 3.16 µM
[6] = second compound 0.0316 µM, first compound 10 µM
[7] = second compound 0.1 µM, first compound 0.0316 µM
[8] = second compound 0.1 µM, first compound 0.1 µM
[9] = second compound 0.1 µM, first compound 0.316 µM
[10] = second compound 0.1 µM, first compound 1 µM
[11] = second compound 0.1 µM, first compound 3.16 µM
[12] = second compound 0.1 µM, first compound 10 µM
[13] = second compound 0.316 µM, first compound 0.0316 µM
[14] = second compound 0.316 µM, first compound 0.1 µM
[15] = second compound 0.316 µM, first compound 0.316 µM
[16] = second compound 0.316 µM, first compound 1 µM
[17] = second compound 0.316 µM, first compound 3.16 µM
[18] = second compound 0.316 µM, first compound 10 µM
[19] = second compound 1 µM, first compound 0.0316 µM
[20] = second compound 1 µM, first compound 0.1 µM
[21] = second compound 1 µM, first compound 0.316 µM
[22] = second compound 1 µM, first compound 1 µM
[23] = second compound 1 µM, first compound 3.16 µM
[24] = second compound 1 µM, first compound 10 µM
[25] = second compound 3.16 µM, first compound 0.0316 µM
[26] = second compound 3.16 µM, first compound 0.1 µM
[27] = second compound 3.16 µM, first compound 0.316 µM
[28] = second compound 3.16 µM, first compound 1 µM
[29] = second compound 3.16 µM, first compound 3.16 µM
[30] = second compound 3.16 µM, first compound 10 µM
[31] = second compound 10 µM, first compound 0.0316 µM
[32] = second compound 10 µM, first compound 0.1 µM
[33] = second compound 10 µM, first compound 0.316 µM
[34] = second compound 10 µM, first compound 1 µM
[35] = second compound 10 µM, first compound 3.16 µM
[36] = second compound 10 µM, first compound 10 µM
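Note: spheroids exposed to agents for seven days before read-out.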

With `C#Cc1c(F)ccc2cc(O)cc(-c3ncc4c(N5CC6CCC(C5)N6)nc(OCC56CCCN5CC(F)C6)nc4c3F)c12` (stereo unspecified) + Cc1nc(NC(=O)N2CCCC2C(N)=O)sc1-c1ccnc(C(C)(C)C(F)(F)F)c1 the IC50 (second compound 0.0316 µM) was > 10 µM, the IC50 (second compound 0.1 µM) was > 10 µM and the IC50 (second compound 0.316 µM) was > 10 µM. For the same compound, the IC50 (second compound 1 µM) was > 10 µM, the IC50 (second compound 3.16 µM) was > 10 µM and the IC50 (second compound 10 µM) was 7.68 µM. It also gave a viability, T/C [1] of 108%, a viability, T/C [2] of 97.4% and a viability, T/C [3] of 99.1%. For the same compound, the viability, T/C [4] was 95.5%, the viability, T/C [5] was 93.7% and the viability, T/C [6] was 83.2%. It also gave a viability, T/C [7] of 122%, a viability, T/C [8] of 97% and a viability, T/C [9] of 102%. It also gave a viability, T/C [10] of 88.7%, a viability, T/C [11] of 92.9% and a viability, T/C [12] of 82.2%. It also gave a viability, T/C [13] of 93.4%, a viability, T/C [14] of 96.2% and a viability, T/C [15] of 93.7%. For the same compound, the viability, T/C [16] was 83.8%, the viability, T/C [17] was 90.2% and the viability, T/C [18] was 77.7%. The viability, T/C [19] was 89.5%, the viability, T/C [20] was 92.4% and the viability, T/C [21] was 89%. It also gave a viability, T/C [22] of 85%, a viability, T/C [23] of 87.8% and a viability, T/C [24] of 76.5%. It also gave a viability, T/C [25] of 74.3%, a viability, T/C [26] of 78.9% and a viability, T/C [27] of 87.3%. For the same compound, the viability, T/C [28] was 75.3%, the viability, T/C [29] was 77.4% and the viability, T/C [30] was 63.5%. It also gave a viability, T/C [31] of 75.6%, a viability, T/C [32] of 69.2% and a viability, T/C [33] of 67.3%. For the same compound, the viability, T/C [34] was 63.1%, the viability, T/C [35] was 57.6% and the viability, T/C [36] was 47.3%.

`Cn1ncc(Cl)c1-c1cc(C(=O)NC(CN)Cc2cccc(F)c2)sc1Cl` (stereo unspecified) + COc1c(OCCCN2CCOCC2)ccc2c3n(c(=NC(=O)c4cnc(N)nc4)nc12)CCN3 was tested, and the IC50 (second compound 0.00316 µM) was > 10 µM, the IC50 (second compound 0.01 µM) was > 10 µM and the IC50 (second compound 0.0316 µM) was > 10 µM. For the same compound, the IC50 (second compound 0.1 µM) was > 10 µM, the IC50 (second compound 0.316 µM) was > 10 µM and the IC50 (second compound 1 µM) was > 10 µM. It also gave a viability, T/C (second compound 0.00316 µM, first compound 0.0316 µM) of 112%, a viability, T/C (second compound 0.00316 µM, first compound 0.1 µM) of 101% and a viability, T/C (second compound 0.00316 µM, first compound 0.316 µM) of 99.2%. The viability, T/C (second compound 0.00316 µM, first compound 1 µM) was 98.8%, the viability, T/C (second compound 0.00316 µM, first compound 3.16 µM) was 89.2% and the viability, T/C (second compound 0.00316 µM, first compound 10 µM) was 63.9%. It also gave a viability, T/C (second compound 0.01 µM, first compound 0.0316 µM) of 117%, a viability, T/C (second compound 0.01 µM, first compound 0.1 µM) of 103% and a viability, T/C (second compound 0.01 µM, first compound 0.316 µM) of 103%. The viability, T/C (second compound 0.01 µM, first compound 1 µM) was 83.5%, the viability, T/C (second compound 0.01 µM, first compound 3.16 µM) was 78.9% and the viability, T/C (second compound 0.01 µM, first compound 10 µM) was 76%. The viability, T/C [1] was 86.9%, the viability, T/C [2] was 99.8% and the viability, T/C [3] was 90.9%. For the same compound, the viability, T/C [4] was 78.9%, the viability, T/C [5] was 89% and the viability, T/C [6] was 58.5%. For the same compound, the viability, T/C [7] was 72.4%, the viability, T/C [8] was 70.4% and the viability, T/C [9] was 78.9%. The viability, T/C [10] was 83.3%, the viability, T/C [11] was 69.5% and the viability, T/C [12] was 70.3%. It also gave a viability, T/C [13] of 64.6%, a viability, T/C [14] of 68.4% and a viability, T/C [15] of 70.6%. The viability, T/C [16] was 47.8%, the viability, T/C [17] was 80.4% and the viability, T/C [18] was 51%. The viability, T/C [19] was 52.4%, the viability, T/C [20] was 71.5% and the viability, T/C [21] was 48.7%. For the same compound, the viability, T/C [22] was 65.7%, the viability, T/C [23] was 59.8% and the viability, T/C [24] was 41.7%.

For `C[C@@H](NC(=O)c1ncnc(N)c1Cl)c1ncc(C(=O)Nc2cc(C(F)(F)F)c(Cl)cn2)s1` + Cc1nc(NC(=O)N2CCCC2C(N)=O)sc1-c1ccnc(C(C)(C)C(F)(F)F)c1, the IC50 (second compound 0.0316 µM) was > 10 µM, the IC50 (second compound 0.1 µM) was > 10 µM and the IC50 (second compound 0.316 µM) was > 10 µM. For the same compound, the IC50 (second compound 1 µM) was > 10 µM, the IC50 (second compound 3.16 µM) was > 10 µM and the IC50 (second compound 10 µM) was > 10 µM. For the same compound, the viability, T/C [1] was 104%, the viability, T/C [2] was 106% and the viability, T/C [3] was 119%. It also gave a viability, T/C [4] of 117%, a viability, T/C [5] of 112% and a viability, T/C [6] of 103%. For the same compound, the viability, T/C [7] was 117%, the viability, T/C [8] was 98.2% and the viability, T/C [9] was 119%. It also gave a viability, T/C [10] of 104%, a viability, T/C [11] of 112% and a viability, T/C [12] of 104%. For the same compound, the viability, T/C [13] was 107%, the viability, T/C [14] was 104% and the viability, T/C [15] was 106%. The viability, T/C [16] was 108%, the viability, T/C [17] was 110% and the viability, T/C [18] was 103%. It also gave a viability, T/C [19] of 92.6%, a viability, T/C [20] of 99% and a viability, T/C [21] of 105%. It also gave a viability, T/C [22] of 102%, a viability, T/C [23] of 111% and a viability, T/C [24] of 90%. For the same compound, the viability, T/C [25] was 84.8%, the viability, T/C [26] was 90.3% and the viability, T/C [27] was 96.5%. It also gave a viability, T/C [28] of 91.7%, a viability, T/C [29] of 95.8% and a viability, T/C [30] of 75.1%. The viability, T/C [31] was 76.5%, the viability, T/C [32] was 74.3% and the viability, T/C [33] was 83.7%. It also gave a viability, T/C [34] of 76.8%, a viability, T/C [35] of 72.5% and a viability, T/C [36] of 58.5%.
